Results on 2 compounds are retold here after patent publication US7317018B2, “Anti-inflammatory medicament” (Medestea Internazionale S.p.A., priority 2000, dated 2008).

Holding throughout (format): in vivo
For one assay, the system named is noninflamed rat paws. Kind of assay: Paw pressure test (nociceptive threshold) in noninflamed rat paws. The method, then:
(§1) Male Fischer inbred rats (Charles River Italy, Calco, Lecco, Italy) weighing about 250 g were used. Rats, under brief isoflurane anaesthesia received an intraplantar injection of Freund's complete adjuvant (FCA) (0.15 ml) into the right hind paw. This injection induced a unilateral inflammation (from 3 h until 24-48 h following injection) evidenced by increase in paw volume, hyperthermia and hyperalgesia. Hyperalgesia was assessed by an algesyometric test, using an analgesyometer (Ugo Basile, Comerio, Italy) to determine the paw pressure threshold, expressed in grams, namely the pressure required to elicit paw withdrawal, which indicates the nociceptive threshold value. 6 to 8 rats were used for each test. During these trials, animals were treated according to the “standard ethical guidelines” (NIH, 1985).
Dose/effect curves in noninflamed paws were in fact superimposable (until 120′ after oATP administration) using different concentrations of the molecule. In order to ascertain whether oATP analgesic effect was somewhat related to the activation of inflammatory cells able to produce endogenous β-endorphins, some rats were intravenously injected with fucoidin (10 mg/kg). Fucoidin in fact inhibits leukocyte diapedesis and their accumulation at the inflammation site. Pre-treatment with fucoidin was carried out in both paws, 30′ before FCA injection in one of the rat paws. Pain pressure threshold (PPT) was measured in both noninflamed and inflamed paws, before and after oATP injection (224 μm).

For assay [1], the system named is rat hind paw inflamed by Freund's complete adjuvant (FCA). Nature of the assay: Paw pressure test (nociceptive threshold) and inflammatory signs in rat hind paw inflamed by intraplantar Freund's complete adjuvant (FCA). As to the method:
As experimental model, a unilateral inflammation in rat hind paw, after intraplantar injection of Freund's complete adjuvant (FCA), has been used. The controlateral paw of treated animals, as well as that of untreated animals, were used as controls. Inflammation induced by FCA was evidenced, from 3 h until 24-48 h following injection, by increase in paw volume, hyperthermia and hyperalgesia. The latter was evaluated by an algesyometric test (paw pressure test) capable of evaluating the nociceptive threshold. […] Different doses of oATP always induced a significant, dose-dependent analgesic effect, lasting approximately 12-24 hours, with an effect peak already one hour after the administration.
as §1
Rat inflamed paw received, 24 hrs after FCA injection, intraplantar injection of different doses of oATP (56 to 336 μM), considering time 0 the moment of oATP injection.
The effect of the maximal oATP dose used was tested in a further set of experiments, for more prolonged times, on rat paws in which the inflammatory process had been induced 48 hrs before (table 2). […]

The test system of assay [2] is ATP content in paw subcutaneous tissue. Kind of assay: ATP content of rat paw subcutaneous tissue, luminescence method. The note with it: for ATP levels: 6 and 12 h following intraplantar oATP (35 μM), FIG. 3.
Protocol: ATP content was assessed in oATP treated rat paws and controlateral untreated ones. Paw subcutaneous tissues were removed from both inflamed and noninflamed paws and rapidly frozen in liquid nitrogen. The frozen tissue samples were weighed, homogenised in phosphate buffer, then treated with K2CO3 and neutralised, finally centrifuged. The supernatant was used for ATP assay, following the luminescence method. We determined in a separate group of rats the modifications in ATP content induced in the plantar tissue by the inflammatory process and/or by oATP treatment. At established times, paw subcutaneous tissues were removed and rapidly frozen in liquid nitrogen, with the aim of blocking any metabolic activity. The frozen tissue was homogenized with a polytron (Kinematica GmbH, Luzern, Switzerland) in ice-cold 6% (w/v) HClO4 to extract nucleotides. The homogenate was centrifuged and the supernatant was used for ATP determination, following the procedure previously described (Marni et al., Transplantation (1988), 46: 830-835). ATP assay was performed by luminescence method (Ferrero et al., Res Commun Chem Path Pharmac 1984; 45: 55-67). We measured ATP levels, in inflamed (by 24 h FCA treatment) and noninflamed paws treated with oATP, at 6 and 12 h following oATP administration, and in controlateral untreated paws. […] ATP content, at 6 and 12 h following intraplantar oATP (35 μM) injection in rat paws: inflamed (by 24 FCA administration) (filled bars), inflamed-oATP treated (hatched bars), noninflamed (open bars), noninflamed-oATP-treated (horizontal line bars). *p<0.005 compared with inflamed untreated paws, Wilcoxon test. Data are expressed as means±S.E.M. of 7 experiments.

As to `Nc1ncnc2c1ncn2[C@@H]1O[C@H](COP(=O)(O)OP(=O)(O)OP(=O)(O)O)[C@@H](O)[C@H]1O` [ATP, reference compound], the nociceptive threshold was found to be 25±3.0 in the assay on noninflamed rat paws (240′ after intraplantar injection of ATP (0.9 mmoles)); 120±3.2 in the assay with noninflamed rat paws (before intraplantar injection of ATP (0.9 mmoles)); 50±4.1 in assay [1] (inflamed paws, after intraplantar injection of ATP (0.9 mmoles)); 65±4.2 in assay [1] (inflamed paws, before intraplantar injection of ATP (0.9 mmoles)).
Turning to `Nc1ncnc2c1ncn2[C@@H](C=O)O[C@@H](C=O)COP(=O)(O)OP(=O)(O)OP(=O)(O)O` [oATP, adenosine-5′-triphosphate-2′,3′-dialdehyde], the “effect on nociceptive threshold” value in the assay on noninflamed rat paws (already at the lowest oATP concentration (56 μM), dose/effect curves superimposable until 120′) was “effective in increasing nociceptive threshold, for a short time”. Besides, the “pain pressure threshold (PPT)” value was “did not significantly change PPT values” in the assay on noninflamed rat paws (fucoidin 10 mg/kg i.v. pre-treatment, oATP injection 224 μm, FIG. 1) and “restored PPT levels” in assay [1] (inflamed paws, fucoidin 10 mg/kg i.v. pre-treatment 30′ before FCA, oATP injection 224 μm, FIG. 1). Further, the “duration of analgesic effect” value in assay [1] (intraplantar injection, different doses of oATP) was in the range of 12 to 24 h. Moreover, the “dose dependence of analgesic effect” value in assay [1] (intraplantar oATP 56 to 336 μM) is “dose-dependent effect”. For the same compound, in assay [1] (local treatment 3 hours after FCA, oATP 336 μM vs diclofenac 15 mg, FIG. 2), the “analgesic efficacy compared with diclofenac” value is recorded as “significantly higher than that of diclofenac”. Further, the “nociceptive threshold or paw pressure threshold” value was determined as 120 ± 2.1 g in assay [1] (oATP 56 μM intraplantar, 24 hrs after FCA, inflamed paw, 30′); 190 ± 2.3 g in assay [1] (oATP 56 μM intraplantar, 24 hrs after FCA, inflamed paw, 60′); 85 ± 2.5 g in assay [1] (oATP 56 μM intraplantar, 24 hrs after FCA, inflamed paw, 90′); 75 ± 1.8 g in assay [1] (oATP 56 μM intraplantar, 24 hrs after FCA, inflamed paw, 120′); 75 ± 2.6 g in assay [1] (oATP 56 μM intraplantar, 24 hrs after FCA, inflamed paw, 240′); 60 ± 1.6 g in assay [1] (oATP 56 μM intraplantar, 24 hrs after FCA, inflamed paw, time 0′ (untreated inflamed paw, baseline)). The “nociceptive threshold or paw pressure threshold” value in assay [1] (oATP 112 μM intraplantar, 24 hrs after FCA, inflamed paw, 30′) is 140 ± 3.5 g; in assay [1] (oATP 112 μM intraplantar, 24 hrs after FCA, inflamed paw, 60′) it was 180 ± 4.2 g; in assay [1] (oATP 112 μM intraplantar, 24 hrs after FCA, inflamed paw, 90′) it was 150 ± 3.8 g; in assay [1] (oATP 112 μM intraplantar, 24 hrs after FCA, inflamed paw, 120′) it was 100 ± 3.0 g; in assay [1] (oATP 112 μM intraplantar, 24 hrs after FCA, inflamed paw, 240′) it was 105 ± 4.3 g; in assay [1] (oATP 112 μM intraplantar, 24 hrs after FCA, inflamed paw, time 0′ (untreated inflamed paw, baseline)), 65 ± 2.0 g. For the same compound, the “nociceptive threshold or paw pressure threshold” value came to 350 ± 54 g in assay [1] (oATP 224 μM intraplantar, 24 hrs after FCA, inflamed paw, 30′); 400 ± 10.3 g in assay [1] (oATP 224 μM intraplantar, 24 hrs after FCA, inflamed paw, 60′); 300 ± 11.2 g in assay [1] (oATP 224 μM intraplantar, 24 hrs after FCA, inflamed paw, 90′); 185 ± 7.1 g in assay [1] (oATP 224 μM intraplantar, 24 hrs after FCA, inflamed paw, 120′); 180 ± 8.9 g in assay [1] (oATP 224 μM intraplantar, 24 hrs after FCA, inflamed paw, 240′); 50 ± 1.5 g in assay [1] (oATP 224 μM intraplantar, 24 hrs after FCA, inflamed paw, time 0′ (untreated inflamed paw, baseline)). Moreover, the “nociceptive threshold or paw pressure threshold” value in assay [1] (oATP 336 μM intraplantar, 24 hrs after FCA, inflamed paw, 30′) was 300 ± 3.4 g; in assay [1] (oATP 336 μM intraplantar, 24 hrs after FCA, inflamed paw, 60′, 750 = cut off), “=> 750 *1 g”; in assay [1] (oATP 336 μM intraplantar, 24 hrs after FCA, inflamed paw, 90′, 750 = cut off) it was “=> 750 *2 g”; in assay [1] (oATP 336 μM intraplantar, 24 hrs after FCA, inflamed paw, 120′) it was 600 ± 20.8 g; in assay [1] (oATP 336 μM intraplantar, 24 hrs after FCA, inflamed paw, 240′), 550 ± 18.4 g; in assay [1] (oATP 336 μM intraplantar, 24 hrs after FCA, inflamed paw, time 0′ (untreated inflamed paw, baseline)), 60 ± 1.9 g. Besides, the “nociceptive threshold or paw pressure threshold” value is 210 ± 10.7 g in assay [1] (oATP 336 μM, inflammatory process induced 48 hrs before, 30′); 360 ± 25.8 g in assay [1] (oATP 336 μM, inflammatory process induced 48 hrs before, 60′); 395 ± 30.2 g in assay [1] (oATP 336 μM, inflammatory process induced 48 hrs before, 90′); 450 ± 38.1 g in assay [1] (oATP 336 μM, inflammatory process induced 48 hrs before, 120′); 550 ± 45.9 g in assay [1] (oATP 336 μM, inflammatory process induced 48 hrs before, 180′); 690 ± 56.6 g in assay [1] (oATP 336 μM, inflammatory process induced 48 hrs before, 240′). Also, the “nociceptive threshold or paw pressure threshold” value is 400 ± 29.7 g in assay [1] (oATP 336 μM, inflammatory process induced 48 hrs before, 12 hours); 210 ± 7.2 g in assay [1] (oATP 336 μM, inflammatory process induced 48 hrs before, 24 hours); 190 ± 3.3 g in assay [1] (oATP 336 μM, inflammatory process induced 48 hrs before, 26 hours); 55 ± 2.0 g in assay [1] (oATP 336 μM, inflammatory process induced 48 hrs before, time 0′ (baseline)). Also, the “inflammatory signs (swelling, hyperthermia)” value in assay [1] (oATP treated paws compared with untreated paws) was “reduction of inflammatory signs”. The ATP levels entry was “significantly reduced” in assay [2] (inflamed tissues (24 h FCA), p<0.005 vs inflamed untreated paws) and “did not significantly change ATP levels” in assay [2] (noninflamed tissues). Besides, the “ATP content of paw homogenate” value in assay [2] (oATP treated paws, untreated 1050±90, mean±S.E.M. of 7 experiments) amounted to 320±22 nmoles/g fresh tissue.
